The source of these data is Sander's compilation of Henry's law constants (doi:10.1021/ac00062a008).

The data set can be described thus: Henry solubility constant Hcp at 298.15 K (mol/(m3 Pa)). The following applies: reference: Zhang and Pawliszyn (1993).

With `Cc1ccccc1` [methylbenzene], the “Henry solubility constant Hcp” value came to 0.0015.
On to `c1ccc2ccccc2c1` [naphthalene], for which the “Henry solubility constant Hcp” value was determined as 0.021.
Regarding `Cc1ccc(C)cc1` [1,4-dimethylbenzene], the “Henry solubility constant Hcp” value was 0.0017.
For `c1ccc2c(c1)ccc1c3ccccc3ccc21` [chrysene], the “Henry solubility constant Hcp” value worked out at 9.4.
The figure for `c1ccc2c(c1)ccc1ccccc12` [phenanthrene] is 0.25; for `Cc1ccccc1C` [1,2-dimethylbenzene] it is 0.0027.
For `c1ccc2cc3ccccc3cc2c1` [anthracene], the “Henry solubility constant Hcp” value was 0.11.
The result for `c1cc2c3c(cccc3c1)CC2` [acenaphthene] reads 0.11; that for `c1ccccc1` [benzene], 0.0015.
The result for `CCc1ccccc1` [ethylbenzene] reads 0.0025.
